In patent US20210267203A1, “PESTICIDALLY ACTIVE AZOLE-AMIDE COMPOUNDS” (SYNGENTA PARTICIPATIONS AG, priority 2018, published 2021):

Key:
Format in all cases: in vivo
[1] = tested on: Euschistus heros (Neotropical Brown Stink Bug); assay: Example B2: Euschistus heros (neotropical brown stink bug), soybean leaves sprayed, N2 nymphs; settings: 120 h, application rate 200 ppm, 5 days after infestation, read-out: effect in at least one of the two categories (mortality or growth inhibition)
How it was run: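 Soybean leaves on agar sprayed with aqueous test solutions made from 10,000 ppm DMSO stocks, dried, then infested with N2 nymphs. Mortality and growth inhibition scored versus untreated samples 5 days after infestation; activity threshold at 200 ppm.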

[2] = tested on: Plutella xylostella (Diamond Back Moth); assay: Example B5: Plutella xylostella (diamond back moth), artificial diet, 24-well, eggs; settings: 192 h, application rate 200 ppm, 8 days after infestation, read-out: effect in at least one of the two categories (mortality or growth inhibition)
How it was run: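 Artificial diet in 24-well plates treated with aqueous dilutions of 10,000 ppm DMSO stocks, dried, then infested with Plutella eggs. Mortality and growth inhibition scored against untreated samples 8 days after infestation; activity rated at 200 ppm application rate.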

[3] = tested on: Myzus persicae (Green Peach Aphid); assay: Example B13: activity against Myzus persicae (green peach aphid), 96-well sucrose solution; settings: 120 h, application rate 50 ppm, 5 days after infestation
How it was run: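 Compounds, from 10,000 ppm DMSO stocks, mixed into sucrose solution in wells under stretched Parafilm, with aphids placed on the membrane in an inverted feeding setup. Mortality scored 5 days after infestation.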

[4] = tested on: Tetranychus urticae (Two-Spotted Spider Mite); assay: Example B11: Tetranychus urticae (two-spotted spider mite), feeding/contact activity; settings: 192 h, application rate 200 ppm, mixed population (mobile stages), 8 days after infestation
Description: Example B11: Tetranychus urticae (Two-Spotted Spider Mite):Feeding/Contact Activity
Bean leaf discs on agar in 24-well microtiter plates were sprayed with aqueous test solutions prepared from 10,000 ppm DMSO stock solutions. After drying the leaf discs were infested with a mite population of mixed ages. The samples were assessed for mortality on mixed population (mobile stages) 8 days after infestation.

[5] = tested on: Plutella xylostella (Diamondback Moth); assay: Example B14: activity against Plutella xylostella (diamondback moth), 96-well artificial diet; settings: 216 h, application rate 500 ppm, 9 days after infestation
How it was run: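 Diet in 96-well plates was treated with aqueous dilutions of 10,000 ppm DMSO stocks, dried, and infested with 30 eggs per well via a netted lid; hatching L1 larvae fed on the diet. Mortality scored 9 days after infestation.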

[6] = tested on: Diabrotica Balteata (Corn Root Worm); assay: Example B1: Diabrotica balteata (corn root worm), maize sprouts sprayed, L2 larvae; settings: 96 h, application rate 200 ppm, 4 days after infestation, read-out: effect in at least one of the two categories (mortality or growth inhibition)
How it was run: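 Maize sprouts on agar sprayed with aqueous dilutions of 10,000 ppm DMSO stocks, dried, then infested with 6–10 L2 larvae per well. Mortality and growth inhibition scored against untreated samples 4 days after infestation; rates of 200 ppm.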

[7] = tested on: Spodoptera littoralis (Egyptian Cotton Leaf Worm); assay: Example B9: Spodoptera littoralis (Egyptian cotton leaf worm), cotton leaf discs sprayed, L1 larvae; settings: foliar, 72 h, application rate 200 ppm, 3 days after infestation
How it was run: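 Leaf discs on agar sprayed with aqueous dilutions from 10,000 ppm DMSO stock, dried, then infested with five L1 larvae. Mortality, anti-feeding and growth inhibition scored against untreated samples 3 days after infestation; control counted when any category exceeds untreated.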

[8] = tested on: Frankliniella occidentalis (Western Flower Thrips); assay: Example B3: Frankliniella occidentalis (western flower thrips), feeding/contact activity; settings: 168 h, application rate 200 ppm, mixed ages, 7 days after infestation
Description: Example B3: Frankliniella occidentalis (Western Flower Thrips):Feeding/Contact Activity
(§1) Sunflower leaf discs were placed on agar in 24-well microtiter plates and sprayed with aqueous test solutions prepared from 10,000 DMSO stock solutions. After drying the leaf discs were infested with a Frankliniella population of mixed ages. The samples were assessed for mortality 7 days after infestation.

[9] = tested on: Spodoptera littoralis (Egyptian Cotton Leaf Worm); assay: Example B10: Spodoptera littoralis (Egyptian cotton leaf worm), uptake by lettuce roots from agar, eggs; settings: 144 h, test rate 12.5 ppm, lettuce root uptake, 6 days after infestation, read-out: effect in at least one of the three categories (mortality, anti-feeding, or growth inhibition)
Excerpt: Example B10: Spodoptera littoralis (Egyptian Cotton Leaf Worm)
Test compounds were applied by pipette from 10,000 ppm DMSO stock solutions into 24-well plates and mixed with agar. Lettuce seeds were placed onto the agar and the multi well plate was closed by another plate which contained also agar. After 7 days the compound was absorbed by the roots and the lettuce grew into the lid plate. The lettuce leaves were then cut off into the lid plate. Spodoptera eggs were pipetted through a plastic stencil onto a humid gel blotting paper and the lid plate was closed with it. The samples were assessed for mortality, anti-feedant effect and growth inhibition in comparison to untreated samples 6 days after infestation.
The following compounds gave an effect of at least 80% in at least one of the three categories (mortality, anti-feeding, or growth inhibition) at a test rate of 12.5 ppm: […]

[10] = tested on: Myzus persicae (Green Peach Aphid); assay: Example B7: Myzus persicae (green peach aphid), systemic activity; settings: 144 h, test rate 24 ppm, pea seedling roots in test solution, 6 days
Description: Example B7: Myzus persicae (Green Peach Aphid), Systemic Activity
Roots of pea seedlings infested with an aphid population of mixed ages were placed directly into aqueous test solutions prepared from 10,000 DMSO stock solutions. The samples were assessed for mortality 6 days after placing seedlings into test solutions.

[11] = tested on: Myzus persicae (Green Peach Aphid); assay: Example B8: Myzus persicae (green peach aphid), intrinsic activity; settings: 120 h, test rate 12 ppm, sucrose solution, 24-well, 5 days after infestation
How it was run: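 Compounds diluted from 10,000 ppm DMSO stock were mixed with sucrose solution under stretched Parafilm in a sachet feeding setup, with aphid-infested pea seedlings placed on the membrane. Mortality was scored 5 days after infestation.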

[12] = tested on: Chilo suppressalis (Striped Rice Stemborer); assay: Example B4: Chilo suppressalis (striped rice stemborer), artificial diet, L2 larvae; settings: 144 h, application rate 200 ppm, 6 days after infestation
How it was run: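 L2 larvae (6-8 per well) placed on artificial diet treated with aqueous test solutions prepared from 10,000 ppm DMSO stocks, after drying. Mortality, anti-feeding and growth inhibition scored against untreated samples 6 days after infestation; control means at least one category exceeds untreated.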

[13] = tested on: Myzus persicae (Green Peach Aphid); assay: Example B6: Myzus persicae (green peach aphid), feeding/contact activity; settings: 144 h, application rate 200 ppm, 6 days after infestation
Description: Example B6: Myzus persicae (Green Peach Aphid):Feeding/Contact Activity
Sunflower leaf discs were placed onto agar in a 24-well microtiter plate and sprayed with aqueous test solutions prepared from 10,000 ppm DMSO stock solutions. After drying, the leaf discs were infested with an aphid population of mixed ages. The samples were assessed for mortality 6 days after infestation.

[14] = tested on: Thrips tabaci (Onion Thrips); assay: Example B12: Thrips tabaci (onion thrips), feeding/contact activity; settings: 144 h, application rate 200 ppm, mixed ages, 6 days after infestation
Description: Example B12: Thrips tabaci (Onion Thrips) Feeding/Contact Activity
as §1, with “10,000 ppm” for “10,000”, “thrips” for “Frankliniella”, “6” for “7”

CC(c1ncnn1-c1ncccn1)N(CC1CC1)C(=O)c1cc(C(C)(C)C#N)cc(Cl)n1 (stereo not drawn) [P27, 6-chloro-4-(1-cyano-1-methyl-ethyl)-N-(cyclopropylmethyl)-N-[1-(2-pyrimidin-2-yl-1,2,4-triazol-3-yl)ethyl]pyridine-2-carboxamide]
≥ 80%: percent effect (mortality or growth inhibition) at 200 ppm [1] | percent effect (mortality or growth inhibition) at 200 ppm [2] | mortality at 50 ppm [3] | mortality at 200 ppm [4] | mortality at 500 ppm [5]

CC(c1ncnn1-c1ncccn1)N(CC1CC1)C(=O)c1cc(C(F)(F)F)cc(C2(C(F)(F)F)CC2)c1 (stereo not drawn) [P45, N-(cyclopropylmethyl)-N-[1-(2-pyrimidin-2-yl-1,2,4-triazol-3-yl)ethyl]-3-(trifluoromethyl)-5-[1-(trifluoromethyl)cyclopropyl]benzamide]
≥ 80%: percent effect (mortality or growth inhibition) at 200 ppm [6] | percent control (mortality, anti-feedant effect or growth inhibition) at 200 ppm [7] | percent effect (mortality or growth inhibition) at 200 ppm [1] | mortality at 200 ppm [8] | percent effect (mortality, anti-feeding or growth inhibition) at 12.5 ppm [9] | percent effect (mortality or growth inhibition) at 200 ppm [2] | mortality at 50 ppm [3] | mortality at 24 ppm [10] | mortality at 12 ppm [11] | mortality at 500 ppm [5]

CC(NC(=O)c1cc(-c2cccnc2Cl)cc(C(F)(F)F)c1)c1ncnn1-c1ncccn1 (stereo not drawn) [P62, 3-(2-chloro-3-pyridyl)-N-[1-(2-pyrimidin-2-yl-1,2,4-triazol-3-yl)ethyl]-5-(trifluoromethyl)benzamide]
≥ 80%: mortality at 200 ppm [4]

CC(NC(=O)c1cc(C(F)(F)F)cc(S(C)(=O)=O)c1)c1ncnn1-c1ncccn1 (stereo not drawn) [P64, 3-methylsulfonyl-N-[1-(2-pyrimidin-2-yl-1,2,4-triazol-3-yl)ethyl]-5-(trifluoromethyl)benzamide]
≥ 80%: percent effect (mortality or growth inhibition) at 200 ppm [6] | percent control (mortality, anti-feedant effect or growth inhibition) at 200 ppm [7] | percent effect (mortality or growth inhibition) at 200 ppm [1] | mortality at 200 ppm [8] | percent control (mortality, anti-feedant effect or growth inhibition) at 200 ppm [12] | percent effect (mortality or growth inhibition) at 200 ppm [2] | mortality at 200 ppm [13] | mortality at 50 ppm [3] | mortality at 24 ppm [10] | mortality at 12 ppm [11]

C[C@H](NC(=O)c1cc(C2CC2)cc(C(F)(F)F)c1)c1ncnn1-c1ncccn1 [P72, 3-cyclopropyl-N-[(1S)-1-(2-pyrimidin-2-yl-1,2,4-triazol-3-yl)ethyl]-5-(trifluoromethyl)benzamide]
≥ 80%: percent effect (mortality or growth inhibition) at 200 ppm [6] | percent control (mortality, anti-feedant effect or growth inhibition) at 200 ppm [7] | percent effect (mortality or growth inhibition) at 200 ppm [1] | mortality at 200 ppm [8] | percent control (mortality, anti-feedant effect or growth inhibition) at 200 ppm [12] | percent effect (mortality or growth inhibition) at 200 ppm [2] | mortality at 200 ppm [13] | mortality at 12 ppm [11]

Cc1nc(C(C)NC(=O)c2cc(C(F)(F)F)cc(C3(C#N)CC3)c2)n(-c2ncc(Br)cn2)n1 (stereo not drawn) [P78, N-[1-[2-(5-bromopyrimidin-2-yl)-5-methyl-1,2,4-triazol-3-yl]ethyl]-3-(1-cyanocyclopropyl)-5-(trifluoromethyl)benzamide]
≥ 80%: percent effect (mortality or growth inhibition) at 200 ppm [6] | percent control (mortality, anti-feedant effect or growth inhibition) at 200 ppm [7] | percent effect (mortality or growth inhibition) at 200 ppm [1] | mortality at 200 ppm [8] | percent control (mortality, anti-feedant effect or growth inhibition) at 200 ppm [12] | percent effect (mortality or growth inhibition) at 200 ppm [2] | mortality at 12 ppm [11]

CC(NC(=O)c1cc(C(F)(F)F)cc(C(C)(C)C#N)c1)c1ncnn1-c1ncc(Br)cn1 (stereo not drawn) [P79, N-[1-[2-(5-bromopyrimidin-2-yl)-1,2,4-triazol-3-yl]ethyl]-3-(1-cyano-1-methyl-ethyl)-5-(trifluoromethyl)benzamide]
≥ 80%: percent effect (mortality or growth inhibition) at 200 ppm [6] | percent control (mortality, anti-feedant effect or growth inhibition) at 200 ppm [7] | percent effect (mortality or growth inhibition) at 200 ppm [1] | percent control (mortality, anti-feedant effect or growth inhibition) at 200 ppm [12] | percent effect (mortality or growth inhibition) at 200 ppm [2] | mortality at 200 ppm [4]

CC(NC(=O)c1cc(C(F)(F)F)cc(C2(C#N)CC2)c1)c1ncnn1-c1ncccn1 (stereo not drawn) [P85, 3-(1-cyanocyclopropyl)-N-[1-(2-pyrimidin-2-yl-1,2,4-triazol-3-yl)ethyl]-5-(trifluoromethyl)benzamide]
≥ 80%: percent effect (mortality or growth inhibition) at 200 ppm [6] | percent control (mortality, anti-feedant effect or growth inhibition) at 200 ppm [7] | percent effect (mortality or growth inhibition) at 200 ppm [1] | mortality at 200 ppm [8] | percent effect (mortality, anti-feeding or growth inhibition) at 12.5 ppm [9] | percent control (mortality, anti-feedant effect or growth inhibition) at 200 ppm [12] | percent effect (mortality or growth inhibition) at 200 ppm [2] | mortality at 200 ppm [13] | mortality at 50 ppm [3] | mortality at 12 ppm [11]

CC(c1ncnn1-c1ncccn1)N(CC1CC1)C(=O)c1cc(C(F)(F)F)cc(S(=O)(=O)C(F)(F)F)c1 (stereo not drawn) [P89, N-(cyclopropylmethyl)-N-[1-(2-pyrimidin-2-yl-1,2,4-triazol-3-yl)ethyl]-3-(trifluoromethyl)-5-(trifluoromethylsulfonyl)benzamide]
≥ 80%: percent effect (mortality or growth inhibition) at 200 ppm [6] | mortality at 200 ppm [14] | percent control (mortality, anti-feedant effect or growth inhibition) at 200 ppm [7] | percent effect (mortality or growth inhibition) at 200 ppm [1] | percent effect (mortality, anti-feeding or growth inhibition) at 12.5 ppm [9] | percent control (mortality, anti-feedant effect or growth inhibition) at 200 ppm [12] | percent effect (mortality or growth inhibition) at 200 ppm [2] | mortality at 200 ppm [13] | mortality at 50 ppm [3] | mortality at 24 ppm [10] | mortality at 12 ppm [11] | mortality at 500 ppm [5]
